What was measured:
Assay type in all cases: cell-based
[1] = test system: T lymphocytes isolated from RyR163C mice; test: Fura-2 intracellular calcium imaging in T lymphocytes from RyR163C mice; conditions: for Δ1/Δ2 ratio: preincubated, fura-2
Text: (§1) FIGS. 3A and 3B show intracellular calcium measurements in T lymphocytes. […] Shown are average traces recorded from at least 20 cells in one representative experiment.

[2] = test system: T lymphocytes isolated from control WT mice; test: Fura-2 intracellular calcium imaging in T lymphocytes from wild-type mice; conditions: SERCA blocker applied in about 0 mM extracellular calcium; WT cells, compared to 5×FAD and RyR163C
Text: as §1

[3] = test system: T lymphocytes isolated from 5×FAD mice; test: Fura-2 intracellular calcium imaging in T lymphocytes from 5×FAD mice; conditions: SERCA blocker applied in about 0 mM extracellular calcium; 5×FAD T lymphocytes
Text: as §1

With `O=C1CN(/N=C/c2ccc(-c3ccc([N+](=O)[O-])cc3)o2)C(O)=N1` [dantrolene] the “basal intracellular calcium levels” value ([1]; dantrolene 50 μM) was “reducing”, the responses to thapsigargin ([1]; dantrolene 50 μM) was “increasing” and the Δ1/Δ2 ratio ([1]; dantrolene 50 μM) was “reduced”.

In the case of `C/C=C(/C)C(=O)O[C@H]1C(C)=C2[C@H]([C@@H]1OC(=O)CCCCCCC)[C@@](C)(OC(C)=O)C[C@H](OC(=O)CCC)[C@@]1(O)[C@H]2OC(=O)[C@@]1(C)O` [thapsigargin], the “intracellular calcium transients evoked (Δ2=F3−F2)” value [2] is reported as “larger”, the “intracellular calcium transients evoked (Δ2=F3−F2)” value ([1]; SERCA blocker applied in about 0 mM extracellular calcium) is reported as “barely detectable” and the “intracellular calcium transients evoked (Δ2=F3−F2)” value [3] is reported as “barely detectable”.

In the case of ryanodine, the “basal intracellular calcium levels” value ([1]; ryanodine 800 μM) is reported as “reducing”, the responses to thapsigargin ([1]; ryanodine 800 μM) is reported as “increasing” and the Δ1/Δ2 ratio ([1]; ryanodine 800 μM) is reported as “reduced”.

From US20210311075A1, “METHODS FOR DETECTING DISORDERS RELATED TO CALCIUM DISCHARGE FROM INTRACELLULAR STORES” (The Regents of the University of California, priority 2017, published 2021)
